Earlier results in patent US20030211175A1, “Methods and compositions for dietary supplements” (priority 2002, published 2003).

**Q.** Which results are given for Chromium picolinate?
**A.** reducing an elevated blood glucose level (human): moderately effective; toxicity (in vivo): considerable toxicity
